# Test results as given in US6660768B2, “Parasiticidal compositions and methods of use” (Schering-Plough Animal Health Corporation, priority 2001, dated 2003).
# Columns and labels:
# [1] = Example 3C: solubility of 30% permethrin in d-limonene/propylene glycol monomethyl ether mixtures at -15° C.; format: physicochemical; details: initial 30% permethrin
# Description: The temperature was regulated to −15° C. The solutions were placed in the bath and allowed to crystallize and reach equilibrium.
# [2] = Example 3B: solubility of permethrin in PM (propylene glycol monomethyl ether), DM (diethylene glycol monomethyl ether) and PM or DPM (dipropylene glycol monomethyl ether)/d-limonene mixtures at low temperatures, seeded
# Description: These solutions were poured into 100 mL tubes with screw top caps. These tubes were placed in the cold water bath and allowed to come to equilibrium at the temperature of the bath. […] The seeded preparations were then thoroughly shaken, replaced in the bath and allowed to remain in the bath for a 24 hour period. The preparations were then examined for crystallization, then again thoroughly agitated and replaced in the bath for an additional time period. Samples of the supernatant were removed after additional crystallization had occurred.
# The solvent mixtures tested were: dipropylene glycol monomethyl ether/d-limonene and propylene glycol monomethyl ether/d-limonene.
# These solvent mixtures were evaluated at ratios of 2:1, 1:1, 1:2, and then at 8:2 and 9:1 (the first number refers to one of the glycol ethers, the second number refers to d-limonene).
structure (smiles),measurement,setting,value
CC1(C)C(C=C(Cl)Cl)C1C(=O)OCc1cccc(Oc2ccccc2)c1 (centres unmarked) [permethrin],% permethrin in solution,[1]; 0% d-limonene in formula,23.57%
same,% permethrin in solution,[1]; 20% d-limonene in formula,24.78%
same,% permethrin in solution,[1]; 33% d-limonene in formula,25.52%
same,% permethrin in solution,[1]; 50% d-limonene in formula,27.20%
same,% permethrin in solution,[1]; 67% d-limonene in formula,27.51%
same,% permethrin in solution,[1]; 100% d-limonene in formula,25.93%
same,% Total Permethrin,"[2]; 65% permethrin in DPM/d-limonene, 0% d-limonene of solvent mixture, 0° C.",58.25%
same,% Total Permethrin,"[2]; 65% permethrin in DPM/d-limonene, 0% d-limonene of solvent mixture, 5° C.",60.53%
same,% Total Permethrin,"[2]; 65% permethrin in DPM/d-limonene, 10% d-limonene of solvent mixture, 10° C.",61.42%
same,% Total Permethrin,"[2]; 65% permethrin in DPM/d-limonene, 20% d-limonene of solvent mixture, 10° C.",63.46%
same,% Total Permethrin,"[2]; 65% permethrin in DPM/d-limonene, 33% d-limonene of solvent mixture, 0° C.",61.65%
same,% Total Permethrin,"[2]; 65% permethrin in DPM/d-limonene, 33% d-limonene of solvent mixture, 5° C.",63.92%
same,% Total Permethrin,"[2]; 65% permethrin in DPM/d-limonene, 33% d-limonene of solvent mixture, 10° C.",64.93%
same,% Total Permethrin,"[2]; 65% permethrin in DPM/d-limonene, 50% d-limonene of solvent mixture, 0° C.",61.55%
same,% Total Permethrin,"[2]; 65% permethrin in DPM/d-limonene, 50% d-limonene of solvent mixture, 5° C.",64.83%
same,% Total Permethrin,"[2]; 65% permethrin in DPM/d-limonene, 50% d-limonene of solvent mixture, 10° C.",64.30%
same,% Total Permethrin,"[2]; 65% permethrin in DPM/d-limonene, 67% d-limonene of solvent mixture, 0° C.",61.33%
same,% Total Permethrin,"[2]; 65% permethrin in DPM/d-limonene, 67% d-limonene of solvent mixture, 5° C.",65.55%
same,% Total Permethrin,"[2]; 65% permethrin in DPM/d-limonene, 67% d-limonene of solvent mixture, 10° C.",64.92%
same,% Total Permethrin,"[2]; 65% permethrin in DPM/d-limonene, 100% d-limonene of solvent mixture, 0° C.",60.27%
same,% Total Permethrin,"[2]; 65% permethrin in DPM/d-limonene, 100% d-limonene of solvent mixture, 5° C.",62.73%
same,% Total Permethrin,"[2]; 65% permethrin in DPM/d-limonene, 100% d-limonene of solvent mixture, 10° C.",65.88%
same,% Total Permethrin,"[2]; 65% permethrin in PM/d-limonene, 0% d-limonene of solvent mixture, 0° C.",52.65%
same,% Total Permethrin,"[2]; 65% permethrin in PM/d-limonene, 0% d-limonene of solvent mixture, 5° C.",59.51%
same,% Total Permethrin,"[2]; 65% permethrin in PM/d-limonene, 10% d-limonene of solvent mixture, 10° C.",62.08%
same,% Total Permethrin,"[2]; 65% permethrin in PM/d-limonene, 20% d-limonene of solvent mixture, 10° C.",64.35%
same,% Total Permethrin,"[2]; 65% permethrin in PM/d-limonene, 33% d-limonene of solvent mixture, 0° C.",59.42%
same,% Total Permethrin,"[2]; 65% permethrin in PM/d-limonene, 33% d-limonene of solvent mixture, 5° C.",63.08%
same,% Total Permethrin,"[2]; 65% permethrin in PM/d-limonene, 33% d-limonene of solvent mixture, 10° C.",63.89%
same,% Total Permethrin,"[2]; 65% permethrin in PM/d-limonene, 50% d-limonene of solvent mixture, 0° C.",61.74%
same,% Total Permethrin,"[2]; 65% permethrin in PM/d-limonene, 50% d-limonene of solvent mixture, 5° C.",64.05%
same,% Total Permethrin,"[2]; 65% permethrin in PM/d-limonene, 50% d-limonene of solvent mixture, 10° C.",64.45%
same,% Total Permethrin,"[2]; 65% permethrin in PM/d-limonene, 67% d-limonene of solvent mixture, 0° C.",61.45%
same,% Total Permethrin,"[2]; 65% permethrin in PM/d-limonene, 67% d-limonene of solvent mixture, 5° C.",64.86%
same,% Total Permethrin,"[2]; 65% permethrin in PM/d-limonene, 67% d-limonene of solvent mixture, 10° C.",65.95%
same,% Total Permethrin,"[2]; 65% permethrin in PM/d-limonene, 100% d-limonene of solvent mixture, 0° C.",60.27%
same,% Total Permethrin,"[2]; 65% permethrin in PM/d-limonene, 100% d-limonene of solvent mixture, 5° C.",62.73%
same,% Total Permethrin,"[2]; 65% permethrin in PM/d-limonene, 100% d-limonene of solvent mixture, 10° C.",65.88%
same,% Total Permethrin,"[2]; 70% permethrin in DPM/d-limonene, 0% d-limonene of solvent mixture, 0° C.",64.24%
same,% Total Permethrin,"[2]; 70% permethrin in DPM/d-limonene, 0% d-limonene of solvent mixture, 5° C.",65.56%
same,% Total Permethrin,"[2]; 70% permethrin in DPM/d-limonene, 0% d-limonene of solvent mixture, 10° C.",66.58%
same,% Total Permethrin,"[2]; 70% permethrin in DPM/d-limonene, 10% d-limonene of solvent mixture, 10° C.",66.95%
same,% Total Permethrin,"[2]; 70% permethrin in DPM/d-limonene, 20% d-limonene of solvent mixture, 10° C.",67.71%
same,% Total Permethrin,"[2]; 70% permethrin in DPM/d-limonene, 33% d-limonene of solvent mixture, 5° C.",69.64%
same,% Total Permethrin,"[2]; 70% permethrin in DPM/d-limonene, 33% d-limonene of solvent mixture, 10° C.",67.38%
same,% Total Permethrin,"[2]; 70% permethrin in DPM/d-limonene, 50% d-limonene of solvent mixture, 0° C.",65.66%
same,% Total Permethrin,"[2]; 70% permethrin in DPM/d-limonene, 50% d-limonene of solvent mixture, 5° C.",68.48%
same,% Total Permethrin,"[2]; 70% permethrin in DPM/d-limonene, 50% d-limonene of solvent mixture, 10° C.",66.70%
same,% Total Permethrin,"[2]; 70% permethrin in DPM/d-limonene, 67% d-limonene of solvent mixture, 0° C.",66.05%
same,% Total Permethrin,"[2]; 70% permethrin in DPM/d-limonene, 67% d-limonene of solvent mixture, 5° C.",69.38%
same,% Total Permethrin,"[2]; 70% permethrin in DPM/d-limonene, 67% d-limonene of solvent mixture, 10° C.",67.98%
same,% Total Permethrin,"[2]; 70% permethrin in DPM/d-limonene, 100% d-limonene of solvent mixture, 0° C.",64.61%
same,% Total Permethrin,"[2]; 70% permethrin in DPM/d-limonene, 100% d-limonene of solvent mixture, 5° C.",66.05%
same,% Total Permethrin,"[2]; 70% permethrin in DPM/d-limonene, 100% d-limonene of solvent mixture, 10° C.",69.30%
same,% Total Permethrin,"[2]; 70% permethrin in PM/d-limonene, 0% d-limonene of solvent mixture, 0° C.",57.91%
same,% Total Permethrin,"[2]; 70% permethrin in PM/d-limonene, 0% d-limonene of solvent mixture, 5° C.",64.79%
same,% Total Permethrin,"[2]; 70% permethrin in PM/d-limonene, 10% d-limonene of solvent mixture, 10° C.",66.70%
same,% Total Permethrin,"[2]; 70% permethrin in PM/d-limonene, 20% d-limonene of solvent mixture, 10° C.",66.92%
same,% Total Permethrin,"[2]; 70% permethrin in PM/d-limonene, 33% d-limonene of solvent mixture, 0° C.",65.20%
same,% Total Permethrin,"[2]; 70% permethrin in PM/d-limonene, 33% d-limonene of solvent mixture, 5° C.",67.36%
same,% Total Permethrin,"[2]; 70% permethrin in PM/d-limonene, 33% d-limonene of solvent mixture, 10° C.",67.80%
same,% Total Permethrin,"[2]; 70% permethrin in PM/d-limonene, 50% d-limonene of solvent mixture, 0° C.",65.36%
same,% Total Permethrin,"[2]; 70% permethrin in PM/d-limonene, 50% d-limonene of solvent mixture, 5° C.",69.65%
same,% Total Permethrin,"[2]; 70% permethrin in PM/d-limonene, 50% d-limonene of solvent mixture, 10° C.",68.40%
same,% Total Permethrin,"[2]; 70% permethrin in PM/d-limonene, 67% d-limonene of solvent mixture, 0° C.",65.94%
same,% Total Permethrin,"[2]; 70% permethrin in PM/d-limonene, 67% d-limonene of solvent mixture, 5° C.",68.33%
same,% Total Permethrin,"[2]; 70% permethrin in PM/d-limonene, 100% d-limonene of solvent mixture, 0° C.",64.61%
same,% Total Permethrin,"[2]; 70% permethrin in PM/d-limonene, 100% d-limonene of solvent mixture, 5° C.",66.05%
